Test results taken from patent publication US10752612B2, “PLK4 inhibitors” (LUDWIG INSTITUTE FOR CANCER RESEARCH LTD, priority 2015, dated 2020).
pIC50: −log10 of the molar value.

These compounds were tested against T1, human Plk4 kinase domain (aa 2-275) (Homo sapiens, UniProt O00444) (assay: Plk4 kinase assay (ADP-Glo)). Details: Table 1.
T1 construct: purified 6×His-tagged human Plk4 kinase domain (aa 2-275); 6xHis; made in house; host or cells: E. coli
T1 sequence (O00444 2-275): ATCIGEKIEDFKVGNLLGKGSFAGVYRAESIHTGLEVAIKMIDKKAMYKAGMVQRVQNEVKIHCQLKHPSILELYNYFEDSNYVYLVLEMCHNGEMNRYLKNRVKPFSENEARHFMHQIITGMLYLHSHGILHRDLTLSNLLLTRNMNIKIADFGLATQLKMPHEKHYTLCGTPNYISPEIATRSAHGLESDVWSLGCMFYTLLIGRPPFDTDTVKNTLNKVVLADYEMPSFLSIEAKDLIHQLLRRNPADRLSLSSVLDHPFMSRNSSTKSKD
Type: biochemical
Procedure: Kinase assays. […] The Plk4 concentration in the final reaction was 2.5-10 nM with a final pH of 8.0. […] Reactions were allowed to proceed for 4-16 hours at 25° C. Detection was performed using ADP-Glo reagent (Promega), following manufacturer's instructions. Luminescence was measured on an Infinite M1000 plate reader (Tecan). Data were fit using Prism (GraphPad) and Kis were calculated from IC50 data using the Cheng and Prusoff equation (37) or the Copeland formalism for tight-binding inhibitors (38).

pIC50	Compound
< 6.00	CCc1c(Nc2cc(C)[nH]n2)nc(Sc2ccc(NC(=O)C3CC3)cc2)nc1N1CCN(C)CC1
> 6.00	CCNc1nc(Sc2ccc(NC(=O)C3CC3)cc2)nc(Nc2cc(C)[nH]n2)c1C
> 6.00	CCCC(=O)Nc1ccc(Sc2nc(Nc3cc(C)[nH]n3)c(C)c(N3CCN(C)CC3)n2)cc1
> 6.00	Cc1cc(Nc2nc(Sc3ccc(NC(=O)C4CC4)cc3)nc(NC(C)C)c2C)n[nH]1
> 6.00	CCN(C)c1nc(Sc2ccc(NC(C)=O)cc2)nc(Nc2cc(C)[nH]n2)c1C
> 6.00	CC(=O)Nc1ccc(Sc2nc(Nc3cc(C)[nH]n3)c(C)c(N(C)C)n2)cc1
> 6.00	CC(=O)Nc1ccc(Sc2nc(Nc3cc(C)[nH]n3)c(C)c(N3CCCCC3)n2)cc1
< 6.00	COc1c(Nc2cc(C)[nH]n2)nc(Sc2ccc(NC(=O)C3CC3)cc2)nc1N1CCN(C(C)(C)C)CC1
> 6.00	COCCN(C)c1nc(Sc2ccc(NC(C)=O)cc2)nc(Nc2cc(C)[nH]n2)c1C
> 6.00	COCCNc1nc(Sc2ccc(NC(C)=O)cc2)nc(Nc2cc(C)[nH]n2)c1C
> 6.00	COc1c(Nc2cc(C)[nH]n2)nc(Sc2ccc(NC(C)=O)cc2)nc1NC1CCNCC1
> 6.00	CCc1cc(Nc2nc(SC)nc(N3CCN(CCN(C)C)CC3)c2OC)n[nH]1
> 6.00	CCc1cc(Nc2nc(SC)nc(N3CCN(CCN(C)C)CC3)c2C)n[nH]1
> 6.00	COc1c(Nc2cc(C)[nH]n2)nc(Sc2ccc(NC(C)=O)nc2)nc1N1CCOCC1
> 6.00	COc1c(Nc2cc(C)[nH]n2)nc(Sc2ccc(S(=O)(=O)C(C)(C)c3cccc([N+](=O)[O-])c3F)cc2F)nc1N1CCN(C(C)=O)CC1
> 6.00	COc1c(Nc2cc(C)[nH]n2)nc(Sc2ccc(S(=O)(=O)Cc3cccc([N+](=O)[O-])c3F)cc2F)nc1N1CCC(NC(C)=O)CC1
> 6.00	COc1c(Nc2cc(C)[nH]n2)nc(Sc2ccc(S(=O)(=O)C3(c4cccc([N+](=O)[O-])c4F)CC3)cc2F)nc1N1CCC(CN(C)C)CC1
> 6.00	COc1c(Nc2cc(C)[nH]n2)nc(Sc2ccc(S(=O)(=O)C3(c4cccc([N+](=O)[O-])c4F)CC3)cc2F)nc1N1CCC(C(N)=O)CC1
> 6.00	COc1c(Nc2cc(C)[nH]n2)nc(Sc2ccc(S(=O)(=O)C(C)(C)c3c(F)c(F)cc(F)c3F)cc2F)nc1N1CCC(N)CC1
> 6.00	COc1c(Nc2cc(C)[nH]n2)nc(Sc2ccc(S(=O)(=O)Cc3cccc([N+](=O)[O-])c3F)cc2F)nc1N1CCC(CC(N)=O)CC1
> 6.00	COc1c(Nc2cc(C)[nH]n2)nc(Sc2ccc(S(=O)(=O)C3(c4cccc([N+](=O)[O-])c4F)CC3)cc2F)nc1N1CCC(CN)CC1
> 6.00	COc1c(Nc2cc(C)[nH]n2)nc(Sc2ccc(S(=O)(=O)C(C)(C)c3cccc([N+](=O)[O-])c3F)cc2F)nc1N1CCN(CCNC(=O)C(F)(F)F)CC1
> 6.00	COc1c(Nc2cc(C)[nH]n2)nc(Sc2cccc(NC(C)=O)c2)nc1N1CCN(CCN(C)C)CC1
> 6.00	COc1c(Nc2cc(C)[nH]n2)nc(Sc2cccc(NC(C)=O)c2)nc1N1CCOCC1
> 6.00	COc1c(Nc2cc(C)[nH]n2)nc(Sc2ccc(NC(C)=O)cc2)nc1N1CCN(CC(=O)N2CCOCC2)CC1
> 6.00	COc1c(Nc2cc(C)[nH]n2)nc(Sc2ccc(NC(C)=O)cc2)nc1N1CCN(CC(=O)N2CCCCC2)CC1

pIC50	Compound
> 6.00	Cc1cc(Nc2nc(Sc3ccc([N+](=O)[O-])cc3)nc3c2CCC32CCN(C(=O)C(C)(C)C)CC2)n[nH]1
> 6.00	Cc1cc(Nc2nc(Sc3ccc([N+](=O)[O-])cc3)nc3c2CCC32CCNCC2)n[nH]1
> 6.00	CC(=O)Nc1ccc(Sc2nc(Nc3cc(C)[nH]n3)c3c(n2)C2(CC3)CCN(C(=O)C(C)(C)C)CC2)cc1
> 6.00	COc1c(Nc2cc(C)[nH]n2)nc(Sc2ccc([N+](=O)[O-])cc2)nc1N1CCN(CCN(C)C)CC1
> 6.00	COc1c(Nc2cc(C)[nH]n2)nc(Sc2ccc(NC(C)=O)cc2)nc1C1=CCNCC1
> 6.00	COc1c(Nc2cc(C)[nH]n2)nc(Sc2ccc(NC(C)=O)cc2)nc1N1CCN(CCN(C)C)C(C)C1 (stereo not shown)
> 6.00	COc1c(Nc2cc(C)[nH]n2)nc(Sc2ccc(NC(C)=O)cc2)nc1C1=CCN(CC(=O)N(C)C)CC1
> 6.00	COc1c(Nc2cc(C)[nH]n2)nc(Sc2ccc(NC(C)=O)cc2)nc1C1=CCN(CCN(C)C)CC1
> 6.00	CC(=O)Nc1ccc(Sc2nc(Nc3cc(C)[nH]n3)cc(N3CCN(CCN(C)C)CC3C)n2)cc1 (stereo not shown)
> 6.00	COc1c(Nc2cc(C)[nH]n2)nc(Sc2ccc(NC(C)=O)cc2)nc1C1=CCN(C)CC1
> 6.00	CC(=O)Nc1ccc(Sc2nc(Nc3cc(C)[nH]n3)c3c(n2)C2(CC3)CCN(CCN(C)C)CC2)cc1
> 6.00	Cc1cc(Nc2nc(Sc3ccc([N+](=O)[O-])cc3)nc3c2CCC32CCN(CCN(C)C)CC2)n[nH]1
> 6.00	Cc1cc(Nc2nc(Sc3ccc(N)cc3)nc3c2CCC32CCN(CCN(C)C)CC2)n[nH]1
> 6.00	COc1c(Nc2cc(C)[nH]n2)nc(Sc2ccc(NC(C)=O)cc2)nc1N1CCN(CCN2CCCC2)CC1
> 6.00	CCN(C)CCN1CCN(c2nc(Sc3ccc(NC(C)=O)cc3)nc(Nc3cc(C)[nH]n3)c2OC)CC1
> 6.00	COc1c(Nc2cc(C)[nH]n2)nc(Sc2ccc(NC(C)=O)cc2)nc1N1CCN(CCN)CC1
> 6.00	CCN(CC)CCN1CCN(c2nc(Sc3ccc(NC(C)=O)cc3)nc(Nc3cc(C)[nH]n3)c2OC)CC1
> 6.00	COc1c(Nc2cc(C)[nH]n2)nc(Sc2ccc(NC(C)=O)cc2)nc1N1CCN(CCN2CCNCC2)CC1
< 6.00	COC(=O)Cc1cc(Nc2nc(SC)nc(N3CCN(CCN(C)C)CC3)c2OC)n[nH]1
< 6.00	COc1c(Nc2cc(CC(=O)O)[nH]n2)nc(SC)nc1N1CCN(CCN(C)C)CC1
< 6.00	CNC(=O)Cc1cc(Nc2nc(SC)nc(N3CCN(CCN(C)C)CC3)c2OC)n[nH]1
6.00 to 7.00	COc1c(Nc2cc(C)[nH]n2)nc(Sc2ccc(NC(C)=O)cc2)nc1N1CCN(CCN2CCC(O)CC2)CC1
6.00 to 7.00	COc1c(Nc2cc(C)[nH]n2)nc(Sc2ccc(NC(C)=O)cc2)nc1N1CCC(CCN2CCCCC2)CC1
> 6.00	COc1c(Nc2cc(C)[nH]n2)nc(Sc2ccc(NC(C)=O)cc2)nc1N1CCC(CC(=O)O)CC1
> 6.00	COc1c(Nc2cc(C)[nH]n2)nc(Sc2ccc(NC(C)=O)cc2)nc1N1CCN(CCN2CCN(C)CC2)CC1
> 6.00	COC(=O)CC1CCN(c2nc(Sc3ccc(NC(C)=O)cc3)nc(Nc3cc(C)[nH]n3)c2OC)CC1

pIC50	Compound
> 6.00	COc1c(Nc2cc(C)[nH]n2)nc(Sc2ccc(NC(C)=O)cc2)nc1N1CCN(C(N)=O)CC1
> 6.00	COc1c(Nc2cc(C)[nH]n2)nc(Sc2ccc(NC(C)=O)cc2)nc1N1CCN(CC(=O)O)CC1
> 6.00	COc1c(Nc2cc(C)[nH]n2)nc(Sc2ccc(NC(C)=O)cc2)nc1N1CCN(CC(N)=O)CC1
> 6.00	COc1c(Nc2cc(C)[nH]n2)nc(Sc2ccc(NC(C)=O)cc2)nc1N1CC2CCC(C1)N2CCN(C)C
> 6.00	COc1c(Nc2cc(C)[nH]n2)nc(Sc2ccc(NC(C)=O)cc2)nc1N1CCC(CC(N)=O)CC1
> 6.00	COc1c(Nc2cc(C)[nH]n2)nc(Sc2ccc(NC(C)=O)cc2)nc1N1CCN(C(=N)NO)CC1
> 6.00	COc1c(Nc2cc(C)[nH]n2)nc(Sc2ccc(NC(C)=O)cc2)nc1N1CCN(CCN(C)OC)CC1
> 6.00	COc1c(Nc2cc(C)[nH]n2)nc(Sc2ccc(NC(C)=O)cc2)nc1N1CCN(CCNC(N)=O)CC1
> 6.00	COc1c(Nc2cc(C)[nH]n2)nc(Sc2ccc(NC(C)=O)cc2)nc1N1CC(C)N(CCN(C)C)C(C)C1 (stereo not shown)
> 6.00	COc1c(Nc2cc(C)[nH]n2)nc(Sc2ccc(NC(C)=O)cc2)nc1N1CCN(C(=N)N)CC1
> 6.00	COC(=O)CN1CCN(c2nc(Sc3ccc(NC(C)=O)cc3)nc(Nc3cc(C)[nH]n3)c2OC)CC1
> 6.00	COc1c(Nc2cc(C)[nH]n2)nc(Sc2ccc(NC(C)=O)cc2)nc1N1CCN(CCN2CCCCCC2)CC1
> 6.00	COc1c(Nc2cc(C)[nH]n2)nc(Sc2ccc(NC(C)=O)cc2)nc1N1CCN(CCN2CCCCCCC2)CC1
> 6.00	COc1c(Nc2cc(C)[nH]n2)nc(Sc2ccc(NC(C)=O)cc2)nc1N1CCN(CCNC(=N)N)CC1
> 6.00	COC(=O)c1ccc(Sc2nc(Nc3cc(C)[nH]n3)c(OC)c(N3CCN(CCN(C)C)CC3)n2)cc1
> 6.00	COc1c(Nc2cc(C)[nH]n2)nc(Sc2ccc(NC(C)=O)cc2)nc1N1CCN(CCN(C)C)CC1
> 6.00	COc1c(Nc2cc(C)[nH]n2)nc(Sc2ccc(NC(C)=O)cc2)nc1N1CCC(CC(=O)N(C)C)CC1
> 6.00	COc1c(Nc2cc(C)[nH]n2)nc(Sc2ccc(NC(C)=O)cc2)nc1N1CCC(CC(=O)N2CCCCC2)CC1
> 6.00	COc1c(Nc2cc(C)[nH]n2)nc(Sc2ccc(NC(C)=O)cc2)nc1N1CC2CCC(C1)N2CCN1CCN(C)CC1
> 6.00	COc1c(Nc2cc(C)[nH]n2)nc(Sc2ccc(C(C)=O)cc2)nc1N1CCN(CCN(C)C)CC1
> 6.00	COc1c(Nc2cc(C)[nH]n2)nc(Sc2ccc(C(=O)N(C)C)cc2)nc1N1CCN(CCN(C)C)CC1
> 6.00	COc1c(Nc2cc(C)[nH]n2)nc(Sc2ccc(S(C)(=O)=O)cc2)nc1N1CCN(CCN(C)C)CC1
> 6.00	CNC(=O)c1ccc(Sc2nc(Nc3cc(C)[nH]n3)c(OC)c(N3CCN(CCN(C)C)CC3)n2)cc1
> 6.00	COc1c(Nc2cc(C)[nH]n2)nc(Sc2ccc(NC(C)=O)cc2)nc1N1CCN(CCN(C)Cc2ccccc2)CC1
